From patent publication US10988477B2 (Merck Patent GmbH, priority 2018, dated 2021) come the findings set out here.

Each structure is given as a SMILES string. Where two headings read alike, the source gives them in different places.

One experiment concerns the target GCN2 kinase (Homo sapiens, UniProt Q9P2K8). As to the kind of experiment: GCN2 enzyme inhibition assay (Transcreener ADP2 fluorescence polarization). The conditions noted are these: 280 μM ATP. It is filed as biochemical. A digest of the protocol:
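4 nM GCN2 + 200 μM (RS)7 + compound (0–8 μM), 10 min preinc.; start with ATP (280 μM final); 1 h, 25 °C; pH 7.5 Tris/NaCl/MgCl2/DTT; ADP FP readout; IC50, Ki(app) via tight-binding fit.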

The target in experiment [1] is intracellular GCN2 (phosphorylation of the GCN2 substrate eIF2α) (Homo sapiens, UniProt Q9P2K8). Kind of experiment: GCN2 cellular inhibition assay (AlphaScreen SureFire P-eIF2α Ser51, borrelidin-treated U2OS cells). The class given is cell-based. The essentials:
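U2OS, overnight attach; cpd 4-fold serial dil. from 40 μM final; borrelidin 10 μM, 1 h 37 °C/5% CO2; lyse; AlphaScreen P-eIF2α Ser51 (acceptor 2 h, donor overnight, RT, dark); % inhib. vs borrelidin-only.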

The mark [2] stands for this setting: Enzyme activity for compounds of Formula IV, Ki(app), 25° C.
Where [3] appears, read: compounds of Formula IV, biomarker assay, phosphorylated eIF2α Ser51 in borrelidin-treated U2OS cells.
Setting [4] is: compounds of Formula II, 4 nM GCN2 kinase.
Setting [5] is: compounds of Formula II, biomarker assay, phosphorylated eIF2α Ser51 in borrelidin-treated U2OS cells.

GCN2 kinase, sequence (Q9P2K8 whole entry): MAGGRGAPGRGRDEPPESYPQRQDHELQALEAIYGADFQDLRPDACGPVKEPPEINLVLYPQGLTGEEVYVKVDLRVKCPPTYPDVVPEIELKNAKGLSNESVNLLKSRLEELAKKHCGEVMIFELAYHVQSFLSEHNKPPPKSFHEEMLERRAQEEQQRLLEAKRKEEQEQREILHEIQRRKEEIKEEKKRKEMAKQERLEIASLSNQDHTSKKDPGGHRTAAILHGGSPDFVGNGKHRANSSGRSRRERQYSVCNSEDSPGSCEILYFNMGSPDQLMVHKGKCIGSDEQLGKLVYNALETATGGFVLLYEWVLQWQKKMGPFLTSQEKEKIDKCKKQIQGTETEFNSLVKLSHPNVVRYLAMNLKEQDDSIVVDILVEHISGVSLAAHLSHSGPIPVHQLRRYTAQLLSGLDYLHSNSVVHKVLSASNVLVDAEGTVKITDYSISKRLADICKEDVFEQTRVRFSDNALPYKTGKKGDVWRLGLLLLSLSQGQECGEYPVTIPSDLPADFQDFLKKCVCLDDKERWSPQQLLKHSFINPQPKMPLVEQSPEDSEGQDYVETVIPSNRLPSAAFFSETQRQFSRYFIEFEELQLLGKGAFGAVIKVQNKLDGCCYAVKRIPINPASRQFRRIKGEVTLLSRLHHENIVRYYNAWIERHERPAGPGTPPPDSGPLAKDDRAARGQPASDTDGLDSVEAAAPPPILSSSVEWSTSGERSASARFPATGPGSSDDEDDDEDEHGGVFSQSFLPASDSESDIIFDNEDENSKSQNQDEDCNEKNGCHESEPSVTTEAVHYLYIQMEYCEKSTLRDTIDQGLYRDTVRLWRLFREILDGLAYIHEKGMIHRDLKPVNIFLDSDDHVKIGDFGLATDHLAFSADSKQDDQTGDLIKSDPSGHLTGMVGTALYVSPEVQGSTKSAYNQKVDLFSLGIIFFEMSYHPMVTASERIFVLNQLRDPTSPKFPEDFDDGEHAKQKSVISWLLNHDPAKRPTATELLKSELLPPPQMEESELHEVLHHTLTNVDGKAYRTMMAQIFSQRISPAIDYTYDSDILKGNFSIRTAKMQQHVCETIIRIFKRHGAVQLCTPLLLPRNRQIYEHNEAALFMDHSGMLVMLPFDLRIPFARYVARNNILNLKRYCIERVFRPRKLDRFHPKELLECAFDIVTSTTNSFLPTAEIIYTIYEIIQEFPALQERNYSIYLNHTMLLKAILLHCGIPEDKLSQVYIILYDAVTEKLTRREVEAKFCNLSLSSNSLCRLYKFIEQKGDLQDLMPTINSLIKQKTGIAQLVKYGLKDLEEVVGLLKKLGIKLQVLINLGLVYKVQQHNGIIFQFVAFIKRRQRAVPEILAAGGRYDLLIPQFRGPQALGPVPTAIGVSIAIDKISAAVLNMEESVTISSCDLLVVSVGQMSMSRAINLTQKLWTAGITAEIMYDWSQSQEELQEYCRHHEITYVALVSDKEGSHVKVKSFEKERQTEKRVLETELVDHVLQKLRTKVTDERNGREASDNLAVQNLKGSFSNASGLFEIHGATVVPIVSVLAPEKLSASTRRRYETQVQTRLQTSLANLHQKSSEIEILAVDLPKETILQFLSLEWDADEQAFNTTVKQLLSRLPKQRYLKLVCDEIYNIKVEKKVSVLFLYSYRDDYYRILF
intracellular GCN2 (phosphorylation of the GCN2 substrate eIF2α), sequence (Q9P2K8 whole entry): as above

As for `CC1CN(c2cc(Cl)nc(-c3cnc4cnc(C(F)(F)F)cn34)n2)C(C)C(c2cn[nH]c2)N1` (stereo not shown) [IV-567, 3-(4-Chloro-6-(2,5-dimethyl-3-(1H-pyrazol-4-yl)piperazin-1-yl)pyrimidin-2-yl)-6-(trifluoromethyl)imidazo[1,2-a]pyrazine], on GCN2 kinase (setting [2]), the Ki was in the range of 10 to 100 nM. For the same compound, the IC50 in experiment [1] (setting [3]) was 500 to 5000 nM.

Turning to `FC(F)c1ccc2ncc(-c3ccnc(N4CCN5CCNCC5C4)c3)n2n1` (stereo not shown) [II-38, 2-(4-(6-(Difluoromethyl)imidazo[1,2-b]pyridazin-3-yl)pyridin-2-yl)octahydro-1H-pyrazino[1,2-a]pyrazine], the Ki at GCN2 kinase (setting [4]) was 10 to 1000 nM. Further, the IC50 in experiment [1] (setting [5]) is > 5000 nM.

As for `CC1C(C(N)=O)CCCN1c1ccnc(-c2cnc3cnc(C(F)F)cn23)n1` (stereo not shown) [IV-54, 1-(2-(6-(Difluoromethyl)imidazo[1,2-a]pyrazin-3-yl)pyrimidin-4-yl)-2-methylpiperidine-3-carboxamide], the Ki on GCN2 kinase (setting [2]) was 10 to 100 nM. This compound gave an IC50 in experiment [1] (setting [3]) of 500 to 5000 nM.

In turn, `NC(=O)c1ccc2ncc(-c3cc(N4CCN5C(=O)CCCC5C4)ncn3)n2n1` (stereo not shown) [II-727, 3-[6-(6-Oxo-3,4,7,8,9,9a-hexahydro-1H-pyrido[1,2-a]pyrazin-2-yl)pyrimidin-4-yl]imidazo[1,2-b]pyridazine-6-carboxamide] registered a Ki on GCN2 kinase (setting [4]) of 10 to 1000 nM. Further, the IC50 in experiment [1] (setting [5]) was > 5000 nM.

In turn, `CS(=O)(=O)N1CCC2(CCCCN2c2cc(-c3cnc4ccc(C(F)F)nn34)ncn2)C1` (stereo not shown) [II-256, 6-(6-(6-(Difluoromethyl)imidazo[1,2-b]pyridazin-3-yl)pyrimidin-4-yl)-2-(methylsulfonyl)-2,6-diazaspiro[4.5]decane] returned a Ki at GCN2 kinase (setting [4]) of 10 to 1000 nM. The IC50 in experiment [1] (setting [5]) was > 5000 nM.

For `CC1C(CNS(C)(=O)=O)C(F)(F)C(C)CN1c1cc(-c2cnc3ccc(C(F)F)nn23)ncn1` (stereo not shown) [II-462, N-((1-(6-(6-(Difluoromethyl)imidazo[1,2-b]pyridazin-3-yl)pyrimidin-4-yl)-4,4-difluoro-2,5-dimethylpiperidin-3-yl)methyl)methanesulfonamide], the Ki on GCN2 kinase (setting [4]) was < 10 nM. In experiment [1] (setting [5]), the 50% inhibitory concentration (IC50) was < 500 nM.

Turning to `CC1C(CO)OCCN1c1cc(-c2cnc3ccc(C(F)F)nn23)ncn1` (single isomer, unassigned) [II-414, (4-(6-(6-(Difluoromethyl)imidazo[1,2-b]pyridazin-3-yl)pyrimidin-4-yl)-3-methylmorpholin-2-yl)methanol], the Ki on GCN2 kinase (setting [4]) lay within 10 to 1000 nM. For the same compound, the 50% inhibitory concentration (IC50) in experiment [1] (setting [5]) is > 5000 nM.

Turning to `NC(=O)C1COCCN(c2ccnc(-c3cnc4cnc(C(F)F)cn34)n2)C1` (stereo not shown) [IV-128, 4-(2-(6-(Difluoromethyl)imidazo[1,2-a]pyrazin-3-yl)pyrimidin-4-yl)-1,4-oxazepane-6-carboxamide], the Ki on GCN2 kinase (setting [2]) fell in the range of 100 to 1000 nM. Besides, the 50% inhibitory concentration (IC50) in experiment [1] (setting [3]) is > 5000 nM.

`FC(F)(F)c1cn2c(-c3nccc(N4CCO[C@H](c5cn[nH]c5)C4)n3)cnc2s1` (stereo in doubt) [Compound V-3, 2-(1H-Pyrazol-4-yl)-4-(2-(2-(trifluoromethyl)imidazo[2,1-b]thiazol-5-yl)pyrimidin-4-yl)morpholine]: the Ki on GCN2 kinase (compounds of Formula V, 4 nM GCN2 kinase) is < 10 nM. For the same compound, the half-inhibitory concentration (IC50) in experiment [1] (compounds of Formula V, U2OS cells, 10 μM borrelidin, 1 h, read-out: GCN2 Biomarker (IC50)) is < 500 nM.

`CC1CN(c2ccnc(-c3cnc4cnc(C(F)(F)F)cn34)n2)C(C)C(c2cn[nH]c2)O1` (single isomer, unassigned) [IV-451, 3,6-Dimethyl-2-(1H-pyrazol-4-yl)-4-(2-(6-(trifluoromethyl)imidazo[1,2-a]pyrazin-3-yl)pyrimidin-4-yl)morpholine]: at GCN2 kinase (setting [2]), the Ki was < 10 nM. For the same compound, the IC50 in experiment [1] (setting [3]) is < 500 nM.

Consider `N#CCC1CCCN(c2cc(-c3cnc4ccc(C(F)F)nn34)ncn2)C1` (stereo not shown) [II-299, 2-(1-(6-(6-(Difluoromethyl)imidazo[1,2-b]pyridazin-3-yl)pyrimidin-4-yl)piperidin-3-yl)acetonitrile], for which, at GCN2 kinase (setting [4]), the Ki lay within 10 to 1000 nM. The compound further showed an IC50 in experiment [1] (setting [5]) of 500 to 5000 nM.

Regarding `NC(=O)C1CCCN(c2ccnc(-c3cnc4cnc(C(F)F)cn34)n2)C1` (stereo not shown) [IV-42, 1-(2-(6-(Difluoromethyl)imidazo[1,2-a]pyrazin-3-yl)pyrimidin-4-yl)piperidine-3-carboxamide], the Ki on GCN2 kinase (setting [2]) fell in the range of 10 to 100 nM. Moreover, the IC50 in experiment [1] (setting [3]) was in the range of 500 to 5000 nM.

With `CN(C)C1CN(c2cc(-c3cnc4ccc(C(F)F)nn34)ncn2)CC(CNS(C)(=O)=O)C1(F)F` (stereo not shown) [II-259, N-((1-(6-(6-(Difluoromethyl)imidazo[1,2-b]pyridazin-3-yl)pyrimidin-4-yl)-5-(dimethylamino)-4,4-difluoropiperidin-3-yl)methyl)methanesulfonamide], the Ki on GCN2 kinase (setting [4]) is < 10 nM. The IC50 in experiment [1] (setting [5]) is < 500 nM.

In the case of `FC(F)c1cn2c(-c3nccc(N4CCCC(c5cn[nH]c5)C4)n3)cnc2cn1` (stereo not shown) [IV-58, 3-(4-(3-(1H-Pyrazol-4-yl)piperidin-1-yl)pyrimidin-2-yl)-6-(difluoromethyl)imidazo[1,2-a]pyrazine], on GCN2 kinase (setting [2]), the Ki lay in the range of 10 to 100 nM. The compound also came in with a half-maximal inhibitory concentration (IC50) in experiment [1] (setting [3]) of 500 to 5000 nM.

`CS(=O)(=O)NCC12CC1CN(c1cc(-c3cnc4ccc(C(F)F)nn34)ncn1)C2` (stereo not shown) [II-447, N-((3-(6-(6-(Difluoromethyl)imidazo[1,2-b]pyridazin-3-yl)pyrimidin-4-yl)-3-azabicyclo[3.1.0]hexan-1-yl)methyl)methanesulfonamide]: at GCN2 kinase (setting [4]), the Ki lay within 10 to 1000 nM. The IC50 in experiment [1] (setting [5]) is 500 to 5000 nM.

For `OC1CCN(c2ccnc(-c3cnc4cnc(C(F)(F)F)cn34)n2)CC1c1cn[nH]c1` (single isomer, unassigned) [IV-623, 3-(1H-Pyrazol-4-yl)-1-(2-(6-(trifluoromethyl)imidazo[1,2-a]pyrazin-3-yl)pyrimidin-4-yl)piperidin-4-ol], the Ki on GCN2 kinase (setting [2]) was < 10 nM. Further, the 50% inhibitory concentration (IC50) in experiment [1] (setting [3]) was < 500 nM.

At GCN2 kinase (setting [2]), `C[C@@H]1CC[C@H](C(N)=O)CN1c1ccnc(-c2cnc3cnc(C(F)F)cn23)n1` (racemic) [IV-106, Cis-1-(2-(6-(Difluoromethyl)imidazo[1,2-a]pyrazin-3-yl)pyrimidin-4-yl)-6-methylpiperidine-3 carboxamide] registered a Ki of 10 to 100 nM. The compound also had an IC50 in experiment [1] (setting [3]) of 500 to 5000 nM.

`CC1CC(N=S(C)(C)=O)CN(c2cc(-c3cnc4ccc(C(F)(F)F)nn34)ncn2)C1` (stereo not shown) [II-757, dimethyl((5-methyl-1-(6-(6-(trifluoromethyl)imidazo[1,2-b]pyridazin-3-yl)pyrimidin-4-yl)piperidin-3-yl)imino)-16-sulfanone]: the half-inhibitory concentration (IC50) was 10 to 1000 nM at GCN2 kinase (setting [4]) and < 500 nM in experiment [1] (setting [5]).

The compound `NC(=O)C1CN(c2ccnc(-c3cnc4cnc(C(F)(F)F)cn34)n2)CC(F)(F)C1` (stereo not shown) [IV-582, 5,5-Difluoro-1-(2-(6-(trifluoromethyl)imidazo[1,2-a]pyrazin-3-yl)pyrimidin-4-yl)piperidine-3-carboxamide] registered a Ki at GCN2 kinase (setting [2]) of 10 to 100 nM. The IC50 in experiment [1] (setting [3]) is 500 to 5000 nM.

Compound `CS(=O)(=O)NC[C@H]1CCCN(c2ccnc(-c3cnc4cnc(C(F)F)cn34)n2)C1` [IV-29, (S)—N-((1-(2-(6-(Difluoromethyl)imidazo[1,2-a]pyrazin-3-yl)pyrimidin-4-yl)piperidin-3-yl)methyl)methanesulfonamide] gave a Ki on GCN2 kinase (setting [2]) of 100 to 1000 nM. Further, the half-inhibitory concentration (IC50) in experiment [1] (setting [3]) is > 5000 nM.

Take `NCC1CCN(c2cc(-c3cnc4ccc(C(F)F)nn34)ncn2)C1` (stereo not shown) [II-409, (1-(6-(6-(Difluoromethyl)imidazo[1,2-b]pyridazin-3-yl)pyrimidin-4-yl)pyrrolidin-3-yl)methanamine]: at GCN2 kinase (setting [4]), the Ki was 10 to 1000 nM. In experiment [1] (setting [5]), the IC50 was > 5000 nM.

In the case of `C[C@H]1CN(c2ccnc(-c3cnc4cnc(C(F)(F)F)cn34)n2)[C@@H](C)[C@@H](c2cn[nH]c2)N1` [IV-224, 3-(4-((2S,3R,5S)-2,5-dimethyl-3-(1H-pyrazol-4-yl)piperazin-1-yl)pyrimidin-2-yl)-6-(trifluoromethyl)imidazo[1,2-a]pyrazine], on GCN2 kinase (setting [2]), the Ki was < 10 nM. For the same compound, in experiment [1] (setting [3]), the concentration for half-maximal inhibition (IC50) was < 500 nM.

Turning to `CS(=O)(=O)NC1CCC2(CCN(c3cc(-c4cnc5ccc(C(F)F)nn45)ncn3)C2)C1` (single isomer, unassigned) [II-100, N-(2-(6-(6-(Difluoromethyl)imidazo[1,2-b]pyridazin-3-yl)pyrimidin-4-yl)-2-azaspiro[4.4]nonan-7-yl)methanesulfonamide], at GCN2 kinase (setting [4]), the Ki lay within 10 to 1000 nM. This compound also registered a half-maximal inhibitory concentration (IC50) in experiment [1] (setting [5]) of 500 to 5000 nM.

As for `OCc1n[nH]cc1C1CCN(c2ccnc(-c3cnc4cnc(C(F)(F)F)cn34)n2)C1` (stereo not shown) [IV-573, (4-(1-(2-(6-(Trifluoromethyl)imidazo[1,2-a]pyrazin-3-yl)pyrimidin-4-yl)pyrrolidin-3-yl)-1H-pyrazol-3-yl)methanol], the Ki at GCN2 kinase (setting [2]) was in the range of 10 to 100 nM. The compound further displayed an IC50 in experiment [1] (setting [3]) of 500 to 5000 nM.

Take `FC(F)c1cn2c(-c3nsc(N4CCOC(c5cn[nH]c5)C4)n3)cnc2cn1` (stereo not shown) [IV-702, 4-(3-(6-(difluoromethyl)imidazo[1,2-a]pyrazin-3-yl)-1,2,4-thiadiazol-5-yl)-2-(1H-pyrazol-4-yl)morpholine]: the Ki at GCN2 kinase (setting [2]) was 100 to 1000 nM. Also, the concentration for half-maximal inhibition (IC50) in experiment [1] (setting [3]) was > 5000 nM.

With `CC1CN(c2cc(-c3cnc4ccc(C(F)F)nn34)ncn2)CC(CNS(C)(=O)=O)C1=O` (stereo not shown) [II-526, N-((1-(6-(6-(Difluoromethyl)imidazo[1,2-b]pyridazin-3-yl)pyrimidin-4-yl)-5-methyl-4-oxopiperidin-3-yl)methyl)methanesulfonamide], at GCN2 kinase (setting [4]), the Ki is < 10 nM. Besides, in experiment [1] (setting [5]), the IC50 was < 500 nM.
